Laboratory results taken from US10383850B2, “Indazole and indole derivatives as inhibitors of retinoic acid related orphan receptor gamma (ROR gamma) for the treatment of immune-related diseases” (ORCA PHARMACEUTICALS LIMITED, priority 2014, dated 2019).

What follows are compounds tested on Human CD4+CCR6+ T cells (TH17 cell differentiation) (assay: Human Th17 cell differentiation assay (IL-17A in extracellular media by ELISA)). Conditions: 96 h, IL17A in extracellular media by sandwich ELISA, 4 days with cytokine cocktail and antiCD2/CD3/28 beads, read-out: Inhibition of TH17 cell differentiation - Mean IC50.
Format: cell-based

**Q.** How did the IC50 turn out when O=C(O)c1ccc(-n2cc(Cc3c(Cl)cccc3C(F)(F)F)c3cccnc32)cc1 [Compound 1, 4-(3-{[2-chloro-6-(trifluoromethyl)phenyl]methyl}-1H-pyrrolo[2,3-b]pyridin-1-yl)benzoic acid] was run?
**A.** 142 nM

**Q.** COc1cccc(F)c1C(=O)c1cn(-c2ccc(C(=O)O)cc2)c2ccccc12 [Compound 4, 4-[3-(2-fluoro-6-methoxy-benzoyl)indol-1-yl]benzoic acid] was tested. Which IC50 did it give?
**A.** 1490 nM

**Q.** COc1cccc(F)c1C(=O)c1cn(-c2ccc(C(=O)O)cc2)c2c(F)cccc12 [Compound 5, 4-[7-fluoro-3-(2-fluoro-6-methoxy-benzoyl)indol-1-yl]benzoic acid] was tested. Which IC50 did it give?
**A.** 821 nM

**Q.** O=C(O)c1ccc(-n2cc(Cc3c(Cl)cccc3C(F)(F)F)c3ccccc32)cc1O [Compound 6, 4-[3-[[2-chloro-6-(trifluoromethyl)phenyl]methyl]indol-1-yl]-2-hydroxy-benzoic acid] was tested. Which IC50 did it give?
**A.** 4.81 nM

**Q.** With Cc1cccc2c(C(=O)c3c(Cl)cccc3C(F)(F)F)cn(-c3ccc(C(=O)O)cc3)c12 [Compound 7, 4-[3-[2-chloro-6-(trifluoromethyl)benzoyl]-7-methyl-indol-1-yl]benzoic acid] as the compound, how does the IC50 read?
**A.** 498 nM

**Q.** Which IC50 does the source give for O=C(O)c1ccc(-n2cc(C(=O)c3c(Cl)cccc3C(F)(F)F)c3cccc(F)c32)nc1 [Compound 8, 6-[3-[2-chloro-6-(trifluoromethyl)benzoyl]-7-fluoro-indol-1-yl]pyridine-3-carboxylic acid] here?
**A.** 39.5 nM

**Q.** Which IC50 does the source give for Cc1cccc2c(C(=O)c3c(Cl)cccc3Cl)cn(-c3ccc(C(=O)O)cc3)c12 [Compound 9, 4-[3-(2,6-dichlorobenzoyl)-7-methyl-indol-1-yl]benzoic acid] here?
**A.** 1600 nM

**Q.** Which IC50 does the source give for COc1cccc(F)c1C(=O)c1nn(-c2ccc(C(=O)O)cc2)c2ccccc12 [Compound 10, 4-[3-(2-fluoro-6-methoxy-benzoyl)indazol-1-yl]benzoic acid] here?
**A.** 455 nM

**Q.** Which IC50 does the source give for O=C(O)c1ccc(-n2cc(C(=O)c3c(F)cccc3OC(F)(F)F)c3cccc(F)c32)cc1 [Compound 12, 4-[7-fluoro-3-[2-fluoro-6-(trifluoromethoxy)benzoyl]indol-1-yl]benzoic acid] here?
**A.** 192 nM

**Q.** Which IC50 does the source give for O=C(O)c1ccc(-n2cc(C(=O)c3c(F)cccc3OC(F)(F)F)c3cccc(F)c32)c(F)c1 [Compound 13, 3-fluoro-4-[7-fluoro-3-[2-fluoro-6-(trifluoromethoxy)benzoyl]indol-1-yl]benzoic acid] here?
**A.** 181 nM

**Q.** With O=C(O)c1ccc(-n2cc(C(=O)c3c(F)cccc3OC(F)(F)F)c3ccccc32)cc1 [Compound 14, 4-[3-[2-fluoro-6-(trifluoromethoxy)benzoyl]indol-1-yl]benzoic acid] as the compound, how does the IC50 read?
**A.** 338 nM

Same assay, conditions: 96 h, read-out: Inhibition of TH17 cell differentiation - Mean IC50

**Q.** With O=C(O)c1ccc(-n2cc(Cc3c(Cl)cccc3C(F)(F)F)c3ccccc32)cc1 [Compound 2, 4-(3-{[2-chloro-6-(trifluoromethyl)phenyl]methyl}-1H-indol-1-yl)benzoic acid] as the compound, how does the IC50 read?
**A.** 33.6 nM

**Q.** With O=C(O)c1ccc(-n2cc(C(=O)c3c(Cl)cccc3C(F)(F)F)c3cncnc32)cc1 [Compound 3, 4-[5-[2-chloro-6-(trifluoromethyl)benzoyl]pyrrolo[2,3-d]pyrimidin-7-yl]benzoic acid] as the compound, how does the IC50 read?
**A.** 356 nM

These compounds were tested against RORγ ligand binding domain (Homo sapiens (Human), UniProt P51449) (assay: RORγ FRET assay (SRC-1 peptide binding to RORγ ligand binding domain)). Conditions: not given.
Chain of RORγ ligand binding domain (P51449 258-518): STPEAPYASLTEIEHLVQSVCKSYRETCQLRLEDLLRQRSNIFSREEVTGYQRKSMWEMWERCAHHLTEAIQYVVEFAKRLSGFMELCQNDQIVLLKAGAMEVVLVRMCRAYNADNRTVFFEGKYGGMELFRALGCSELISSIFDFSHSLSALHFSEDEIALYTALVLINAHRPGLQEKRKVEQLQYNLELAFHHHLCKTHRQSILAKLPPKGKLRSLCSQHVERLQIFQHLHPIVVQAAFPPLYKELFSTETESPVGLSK

**Q.** Which IC50 does the source give for O=C(O)c1ccc(-n2cc(Cc3c(Cl)cccc3C(F)(F)F)c3cccnc32)cc1 [Compound 1, 4-(3-{[2-chloro-6-(trifluoromethyl)phenyl]methyl}-1H-pyrrolo[2,3-b]pyridin-1-yl)benzoic acid] here?
**A.** 196 nM

Same assay, conditions: read-out: RORγ FRET - Mean IC50

**Q.** Which IC50 does the source give for O=C(O)c1ccc(-n2cc(Cc3c(Cl)cccc3C(F)(F)F)c3ccccc32)cc1 [Compound 2, 4-(3-{[2-chloro-6-(trifluoromethyl)phenyl]methyl}-1H-indol-1-yl)benzoic acid] here?
**A.** 71.8 nM
